Measurements published in the supplement of paper PMC13380429.

Experiments:
[1] = tested on: A549-ACE2 infected with SARS-CoV-2; experiment: cell count relative to DMSO; higher = less toxic; details: 24 h
[2] = tested on: A549-ACE2; experiment: phospholipidosis EC50; higher = less potent phospholipidosis inducer
[3] = tested on: Calu-3; experiment: cell viability relative to DMSO; higher = less toxic; details: 72 h
[4] = tested on: HepG2; experiment: as above; details: 72 h
[5] = tested on: Vero E6; experiment: as above; details: 72 h
[6] = tested on: U2OS; experiment: as above; details: 72 h
[7] = tested on: Caco-2; experiment: as above; details: 72 h
[8] = tested on: Calu-3; experiment: drug sensitivity score (DSS) for viability; higher = more toxic; extreme values may be limits of the assay; details: 72 h
[9] = tested on: HepG2; experiment: as above; details: 72 h
[10] = tested on: Vero E6; experiment: as above; details: 72 h
[11] = tested on: U2OS; experiment: as above; details: 72 h
[12] = tested on: Caco-2; experiment: as above; details: 72 h
[13] = tested on: A549-ACE2 infected with SARS-CoV-2; experiment: morphology score (similarity to uninfected cells); higher = more like uninfected cells; details: 24 h
[14] = tested on: Calu-3; experiment: relative viability EC50 (midpoint between 100% and the lowest measured viability); higher = less toxic; details: 72 h
[15] = tested on: Vero E6; experiment: as above; details: 72 h
[16] = tested on: U2OS; experiment: as above; details: 72 h
[17] = tested on: Caco-2; experiment: as above; details: 72 h
[18] = tested on: A549-ACE2; experiment: drug-induced phospholipidosis relative to tamoxifen; higher = more phospholipidosis
[19] = tested on: A549-ACE2 infected with SARS-CoV-2; experiment: SARS-CoV-2 infection rate relative to DMSO; higher = more infection; details: 24 h
[20] = tested on: HepG2; experiment: relative viability EC50 (midpoint between 100% and the lowest measured viability); higher = less toxic; details: 72 h

Clc1ccccc1CNC[C@H]1CC[C@H](CNCc2ccccc2Cl)CC1 [AY-9944]
Details	SARS-CoV-2 infection rate [%]	cell count [%]	cell viability [%]	morphology score	phospholipidosis EC50 [µM]
[1], 0.3 µM	–	104	–	–	–
[1], 3 µM	–	123	–	–	–
[1], 10 µM	–	126	–	–	–
[1], 30 µM	–	113	–	–	–
[2], 24 h	–	–	–	–	5.85
[2], 48 h	–	–	–	–	5.4
[2], 72 h	–	–	–	–	4.53
[3], 1 nM	–	–	97.7	–	–
[3], 10 nM	–	–	104	–	–
[3], 100 nM	–	–	106	–	–
[3], 1000 nM	–	–	108	–	–
[3], 10000 nM	–	–	7.3	–	–
[4], 1 nM	–	–	104	–	–
[4], 10 nM	–	–	96	–	–
[4], 100 nM	–	–	110	–	–
[4], 1000 nM	–	–	98.1	–	–
[4], 10000 nM	–	–	59.2	–	–
[5], 1 nM	–	–	102	–	–
[5], 10 nM	–	–	104	–	–
[5], 100 nM	–	–	105	–	–
[5], 1000 nM	–	–	94.5	–	–
[5], 10000 nM	–	–	90	–	–
[6], 1 nM	–	–	97.4	–	–
[6], 10 nM	–	–	102	–	–
[6], 100 nM	–	–	103	–	–
[6], 1000 nM	–	–	107	–	–
[6], 10000 nM	–	–	92.8	–	–
[7], 1 nM	–	–	99.5	–	–
[7], 10 nM	–	–	108	–	–
[7], 100 nM	–	–	99.7	–	–
[7], 1000 nM	–	–	95.1	–	–
[7], 10000 nM	–	–	83.7	–	–
[13], 0.3 µM	–	–	–	0.42	–
[13], 3 µM	–	–	–	0.76	–
[13], 10 µM	–	–	–	0.56	–
[13], 30 µM	–	–	–	0.08	–
[19], 0.3 µM	86	–	–	–	–
[19], 3 µM	39	–	–	–	–
[19], 10 µM	17	–	–	–	–
[19], 30 µM	34	–	–	–	–

Details	drug sensitivity score	relative viability EC50 [µM]
[8]	4.6	–
[9]	2.3	–
[10]	0	–
[11]	0	–
[12]	0.8	–
[14]	–	3.6
[15]	–	> 10
[16]	–	> 10
[17]	–	> 10

drug-induced phospholipidosis [%], [18]
Details	0.3 µM	0.833333 µM	3.33333 µM	6.66667 µM	10 µM	30 µM
24 h	20.6	37.8	77.7	88.2	96.4	121
48 h	14.1	38.1	78.4	112	116	148
72 h	17.5	29.9	79.3	115	128	157

O=C(OC(C(F)(F)F)C(F)(F)F)N1CCN(Cc2cccc(Oc3ccccc3)c2)CC1 [JW-642]
Details	SARS-CoV-2 infection rate [%]	cell count [%]	cell viability [%]	morphology score	phospholipidosis EC50 [µM]
[1], 0.3 µM	–	103	–	–	–
[1], 3 µM	–	111	–	–	–
[1], 10 µM	–	105	–	–	–
[1], 30 µM	–	105	–	–	–
[2], 24 h	–	–	–	–	0.723
[2], 48 h	–	–	–	–	1.17
[2], 72 h	–	–	–	–	1.22
[4], 1 nM	–	–	100	–	–
[4], 10 nM	–	–	116	–	–
[4], 100 nM	–	–	87.7	–	–
[4], 1000 nM	–	–	109	–	–
[4], 10000 nM	–	–	101	–	–
[5], 1 nM	–	–	93.1	–	–
[5], 10 nM	–	–	106	–	–
[5], 100 nM	–	–	96.3	–	–
[5], 1000 nM	–	–	90.5	–	–
[5], 10000 nM	–	–	102	–	–
[6], 1 nM	–	–	101	–	–
[6], 10 nM	–	–	98.1	–	–
[6], 100 nM	–	–	102	–	–
[6], 1000 nM	–	–	95.7	–	–
[6], 10000 nM	–	–	97.6	–	–
[7], 1 nM	–	–	98.3	–	–
[7], 10 nM	–	–	106	–	–
[7], 100 nM	–	–	99.4	–	–
[7], 1000 nM	–	–	100	–	–
[7], 10000 nM	–	–	92.4	–	–
[13], 0.3 µM	–	–	–	-0.02	–
[13], 3 µM	–	–	–	0.31	–
[13], 10 µM	–	–	–	-0.04	–
[13], 30 µM	–	–	–	0.29	–
[19], 0.3 µM	100	–	–	–	–
[19], 3 µM	88	–	–	–	–
[19], 10 µM	99	–	–	–	–
[19], 30 µM	90	–	–	–	–

Details	drug sensitivity score	relative viability EC50 [µM]
[9]	0	–
[10]	0	–
[11]	0	–
[12]	0	–
[15]	–	> 10
[16]	–	> 10
[17]	–	> 10
[20]	–	> 10

drug-induced phospholipidosis [%], [18]
Details	0.3 µM	0.833333 µM	3.33333 µM	6.66667 µM	10 µM	30 µM
24 h	6.56	21.9	39.6	46.5	46.2	54.6
48 h	5.07	23.9	54.4	65.2	57.8	68.1
72 h	4.87	23.8	62.1	70.4	64.8	73.8

CCOC(=O)c1c(C)[nH]c2ccc3c(c12)CN1CCc2cc(OC)ccc2C1O3 (stereo unspecified)
Details	SARS-CoV-2 infection rate [%]	cell count [%]	cell viability [%]	morphology score	phospholipidosis EC50 [µM]
[1], 0.3 µM	–	98	–	–	–
[1], 3 µM	–	112	–	–	–
[1], 10 µM	–	114	–	–	–
[1], 30 µM	–	92	–	–	–
[2], 24 h	–	–	–	–	9.3
[3], 1 nM	–	–	102	–	–
[3], 10 nM	–	–	101	–	–
[3], 100 nM	–	–	109	–	–
[3], 1000 nM	–	–	98.4	–	–
[3], 10000 nM	–	–	53.6	–	–
[4], 1 nM	–	–	93.2	–	–
[4], 10 nM	–	–	92.8	–	–
[4], 100 nM	–	–	97.2	–	–
[4], 1000 nM	–	–	78.4	–	–
[4], 10000 nM	–	–	29	–	–
[5], 1 nM	–	–	102	–	–
[5], 10 nM	–	–	104	–	–
[5], 100 nM	–	–	92	–	–
[5], 1000 nM	–	–	91.5	–	–
[5], 10000 nM	–	–	80.1	–	–
[6], 1 nM	–	–	97.3	–	–
[6], 10 nM	–	–	100	–	–
[6], 100 nM	–	–	99.8	–	–
[6], 1000 nM	–	–	98.3	–	–
[6], 10000 nM	–	–	61	–	–
[7], 1 nM	–	–	103	–	–
[7], 10 nM	–	–	98.8	–	–
[7], 100 nM	–	–	95.8	–	–
[7], 1000 nM	–	–	93.1	–	–
[7], 10000 nM	–	–	53.6	–	–
[13], 0.3 µM	–	–	–	-0.2	–
[13], 3 µM	–	–	–	0.69	–
[13], 10 µM	–	–	–	0.83	–
[13], 30 µM	–	–	–	0.42	–
[19], 0.3 µM	105	–	–	–	–
[19], 3 µM	59	–	–	–	–
[19], 10 µM	25	–	–	–	–
[19], 30 µM	26	–	–	–	–

Details	drug sensitivity score	relative viability EC50 [µM]
[8]	2.6	–
[9]	7.1	–
[10]	1.1	–
[11]	2.2	–
[12]	3.6	–
[15]	–	> 10
[20]	–	1.4

drug-induced phospholipidosis [%], [18]
Details	0.3 µM	0.833333 µM	3.33333 µM	6.66667 µM	10 µM	30 µM
24 h	2.45	1.52	13.8	23.7	49.6	77.6
48 h	1.49	1.91	7.41	9.35	10.9	99.9
72 h	3.49	0.0297	4.37	8.63	10.6	83.4
